Measured values as given in the NIST ThermoML archive (doi:10.1021/je0601208).

Key:
[1] = xn = mol fraction of the nth substance listed
[2] = refractive index (Na D-line) (dimensionless); xn = mol fraction of the nth substance listed; settings: 100.5 kPa, Liquid, Standard Abbe refractometry

CC(=O)OCCC(C)C [3-methylbutyl ethanoate] + CCO
Settings | refractive index, [2] | surface tension liquid-gas, [1] [mN/m]
288.15 K, x1 = 0.05 | 1.36803 | 23.2
288.15 K, x1 = 0.1 | 1.37207 | 23.4
288.15 K, x1 = 0.15 | 1.37559 | 23.6
288.15 K, x1 = 0.2 | 1.3787 | 23.7
288.15 K, x1 = 0.25 | 1.38146 | 23.8
288.15 K, x1 = 0.3 | 1.38393 | 24
288.15 K, x1 = 0.35 | 1.38614 | 24.1
288.15 K, x1 = 0.4 | 1.38814 | 24.2
288.15 K, x1 = 0.45 | 1.38996 | 24.3
288.15 K, x1 = 0.5 | 1.39164 | 24.4
288.15 K, x1 = 0.55 | 1.39319 | 24.5
288.15 K, x1 = 0.6 | 1.39462 | 24.6
288.15 K, x1 = 0.65 | 1.39595 | 24.7
288.15 K, x1 = 0.7 | 1.39717 | 24.8
288.15 K, x1 = 0.75 | 1.39829 | 24.9
288.15 K, x1 = 0.8 | 1.39933 | 25
288.15 K, x1 = 0.85 | 1.40031 | 25.1
288.15 K, x1 = 0.9 | 1.40122 | 25.2
288.15 K, x1 = 0.95 | 1.40207 | 25.3
288.15 K, x1 = 1 | 1.40288 | 25.4
298.15 K, x1 = 0.05 | 1.36393 | 22.4
298.15 K, x1 = 0.1 | 1.36787 | 22.5
298.15 K, x1 = 0.15 | 1.37133 | 22.7
298.15 K, x1 = 0.2 | 1.3744 | 22.8
298.15 K, x1 = 0.25 | 1.37712 | 22.9
298.15 K, x1 = 0.3 | 1.37954 | –
298.15 K, x1 = 0.35 | 1.38172 | 23
298.15 K, x1 = 0.4 | 1.3837 | 23.1
298.15 K, x1 = 0.45 | 1.3855 | 23.2
298.15 K, x1 = 0.5 | 1.38717 | 23.3
298.15 K, x1 = 0.55 | 1.38871 | 23.4
298.15 K, x1 = 0.6 | 1.39013 | 23.5
298.15 K, x1 = 0.65 | 1.39144 | 23.6
298.15 K, x1 = 0.7 | 1.39265 | 23.7
298.15 K, x1 = 0.75 | 1.39378 | 23.8
298.15 K, x1 = 0.8 | 1.39482 | 23.9
298.15 K, x1 = 0.85 | 1.3958 | 24
298.15 K, x1 = 0.9 | 1.3967 | 24.1
298.15 K, x1 = 0.95 | 1.39755 | 24.2
298.15 K, x1 = 1 | 1.39836 | 24.3
308.15 K, x1 = 0.05 | 1.35964 | 21.6
308.15 K, x1 = 0.1 | 1.36349 | 21.6
308.15 K, x1 = 0.15 | 1.3669 | 21.7
308.15 K, x1 = 0.2 | 1.36992 | 21.8
308.15 K, x1 = 0.25 | 1.3726 | 21.9
308.15 K, x1 = 0.3 | 1.37499 | 22
308.15 K, x1 = 0.35 | 1.37714 | 22.1
308.15 K, x1 = 0.4 | 1.37909 | 22.2
308.15 K, x1 = 0.45 | 1.38087 | 22.3
308.15 K, x1 = 0.5 | 1.38251 | 22.4
308.15 K, x1 = 0.55 | 1.38404 | 22.5
308.15 K, x1 = 0.6 | 1.38545 | 22.6
308.15 K, x1 = 0.65 | 1.38675 | 22.7
308.15 K, x1 = 0.7 | 1.38795 | 22.8
308.15 K, x1 = 0.75 | 1.38907 | 22.9
308.15 K, x1 = 0.8 | 1.39011 | 23
308.15 K, x1 = 0.85 | 1.39109 | 23.1
308.15 K, x1 = 0.9 | 1.39199 | 23.2
308.15 K, x1 = 0.95 | 1.39284 | 23.3
308.15 K, x1 = 1 | 1.39365 | 23.4
318.15 K, x1 = 0.05 | 1.35556 | 20.6
318.15 K, x1 = 0.1 | 1.3593 | 20.6
318.15 K, x1 = 0.15 | 1.36263 | 20.7
318.15 K, x1 = 0.2 | 1.36558 | 20.8
318.15 K, x1 = 0.25 | 1.36821 | 20.9
318.15 K, x1 = 0.3 | 1.37056 | 21
318.15 K, x1 = 0.35 | 1.37268 | 21.1
318.15 K, x1 = 0.4 | 1.3746 | 21.2
318.15 K, x1 = 0.45 | 1.37634 | 21.3
318.15 K, x1 = 0.5 | 1.37795 | 21.4
318.15 K, x1 = 0.55 | 1.37944 | 21.5
318.15 K, x1 = 0.6 | 1.38082 | 21.6
318.15 K, x1 = 0.65 | 1.38211 | 21.7
318.15 K, x1 = 0.7 | 1.3833 | 21.8
318.15 K, x1 = 0.75 | 1.3844 | 21.9
318.15 K, x1 = 0.8 | 1.38543 | 22
318.15 K, x1 = 0.85 | 1.3864 | 22.1
318.15 K, x1 = 0.9 | 1.3873 | 22.2
318.15 K, x1 = 0.95 | 1.38814 | 22.3
318.15 K, x1 = 1 | 1.38895 | 22.4
